Experiments:
[1] = system: anesthetized rats; experiment: Renal sodium excretion during and after iv peptide infusion in anesthetized rats; type: in vivo, rat
Protocol: Rats were not fasted prior to clearance experiments and ranged in weight from 250-340 g at the time of study. Anesthesia was induced with an intraperitoneal injection of pentobarbital sodium (55 mg/kg BW) and maintained at a surgical plane by intermittent intravenous supplementation. Core temperature was maintained at 37° C. by a servo-controlled, heated operating table. Animals breathed spontaneously through a PE240 cannula inserted into the trachea. A jugular vein was catheterized with PE50 cannula tubing for intravenous infusion of isotonic saline containing FITC-labeled inulin (0.4% W/V, Sigma, St Louis Mo.) and two PE10 cannulae, one for supplemental anesthetic and the other for peptide infusions (described below in the experimental protocol section). The ureters were exposed through a midline ventral incision and cannulated with PE10 tubing about one cm from each kidney. Urine was collected over 20 min periods and the volume estimated by weight. A femoral artery was cannulated with PE50 tubing for continuous measurement of arterial blood pressure and intermittent blood samples (50 μl), taken at the mid point of each urine collection.
(§1) All rats received a continuous intravenous infusion (10 μl/min/100 g BW) of isotonic saline containing FITC-labeled inulin for measurement of inulin clearance. Uncongugated FITC label and small inulin polymers were removed from the inulin solution by overnight dialysis against isotonic saline (SpectraPor 6 dialysis membrane, 1 kDa cutoff-limit, Spectrum Laboratories, Rancho Domingo, Calif.). Undissolved particulates were removed from the solution by filtration through a […] filter before each experiment (Steriflip, Millipore Inc. Billerica, Mass.). At least one hr was allowed for equilibration before the start of urine collections, at which point plasma inulin concentration had stabilized at an average value of 30±3 μg/ml.
(§2) Arterial blood pressure was measured with a pressure transducer connected to a cardiovascular analyzer (Model 50110, Stoelting Instruments Wood Dale, Ill.). Left renal blood flow was measured in some rats with a flow probe positioned on the left renal artery and connected to a blood flow monitor (model 1 PRB probe and model T420 monitor, Transonic Systems Inc. Ithaca N.Y.). Arterial pressure, heart rate, and renal blood flow were digitized with an A/D converter (Keithley instruments, Cleveland, Ohio Model KUSB 3100) for display and storage on a Windows-based personal computer using open layers data acquisition software (Dtx_Ez, Data Translation Inc, Marlboro, Mass.). Sodium and potassium concentrations in plasma and urine were measured by flame photometry (Model 943, Instrumentation Laboratory Co., Lexington Mass.). Glomerular filtration rate (GFR) was measured as the renal clearance rate of FITC-labeled inulin
(§3) After post-surgical equilibration (−60 min) and three 20 min control clearance periods, huUgnA or B was infused into the jugular vein at 10 μl/min over a 60 min period, followed by a return to isotonic saline for the remainder of the experiment. The infused doses of huUgnA were 12, 25, 50, 100, or 200 nmol/kg BW in a total of 38 rats; huUgnB doses were 9, 18, 35, 70, and 140 nmol/kg BW in 35 rats. A UgnA mimetic, E. coli STh (ST-core), was infused into a third group of 32 rats at doses of 17, 32, 66, 133, and 266 nmol/kg. Renal excretory responses to these infusions were slow to develop and long lasting, so clearance periods were continued for 2-3 hr after the termination of the peptide infusion. This protracted time course limited protocols to one dose of one peptide in each rat. A control group of 10 rats received isotonic saline at 10 μl/min in place of the peptide infusion, but was otherwise treated in the same way as the experimental groups.
The effects of combined infusions of huUgnA and B were investigated in two groups of rats that received 35 nmol/kg of huUgnB together with either 25 nmol/kg (n=5) or 100 nmol/kg of huUgnA (n=5). […]

[2] = system: anesthetized rats; experiment: Glomerular filtration rate (FITC-inulin clearance) during and after iv peptide infusion; type: in vivo, rat
Protocol: as §1, §2, §3
This assay was based on the method described by Lorenz and Gruenstein. Urine samples were diluted with hepes-buffered saline (3, 5, 10, or 20 fold, based on urine flow) to neutralize the pH and bring the intensity of FITC emissions into detector range. Small volumes (3-5 μl) of diluted urine and undiluted plasma samples were drawn into constant bore capillary tubes (10 μl Microcap tubes, Drummond Scientific Company, Broomall Pa.) and sealed at each end with water-saturated mineral oil. FITC emission intensity was measured by imaging each sample at 10× magnification with an epifluorescence microscope (Axiovert S100TV, Carl Zeiss Inc. Thornwood, N.Y.) fitted with a CCD camera (Orca II, Hamamatsu Inc. Bridgewater, N.J.) controlled by Metamorph imaging software (Molecular Devices, Sunnyvale, Calif.). Fluorescence intensities were measured as mean pixel intensity obtained from a consistent central region of each sample during a 25 or 500 msec exposure for urine and plasma, respectively. Background intensities were measured in the same way using bladder urine and tail vein plasma collected from the same rat before the beginning of inulin infusion. Inulin concentrations in plasma and urine samples were calculated from a standard curve prepared from the infusion solution used in each experiment. […]

[3] = huUgnA 25 nmol, Post-infuse, *** p<0.005 vs time control

SMILES: CC(C)C[C@H](NC(=O)[C@@H]1CSSC[C@@H]2NC(=O)[C@H](CC(C)C)NC(=O)[C@H](CCC(=O)O)NC(=O)[C@@H](NC(=O)[C@H](CC(=O)O)NC(=O)[C@H](CC(=O)O)NC(=O)[C@@H](N)CC(N)=O)CSSC[C@H](NC(=O)[C@H](C)NC(=O)[C@H](C(C)C)NC(=O)[C@H](CC(N)=O)NC(=O)[C@H](C(C)C)NC2=O)C(=O)N[C@@H]([C@@H](C)O)C(=O)NCC(=O)N1)C(=O)O (single isomer, unassigned) [huUgnA, Asn Asp Asp Cys Glu Leu Cys Val Asn Val Ala Cys Thr Gly Cys Leu, reference compound]
- single effective dose, cumulative sodium excretion ([1]; FIG. 6B, lower or higher doses not different from control): 25 nmol/kg
- FENa (fractional sodium excretion) ([1]; huUgnA 12 nmol, Infuse): 0.10 ± 0.02 % of filtered
- UNaV (sodium excretion) ([1]; huUgnA 12 nmol, Infusion): 118.1 ± 25 nEq/min/g KW
- FENa (fractional sodium excretion) ([1]; huUgnA 12 nmol, Post-infuse): 0.17 ± 0.02 % of filtered
- UNaV (sodium excretion) ([1]; huUgnA 12 nmol, Post-infuse): 222 ± 33 nEq/min/g KW
- FENa (fractional sodium excretion) ([1]; huUgnA 12 nmol, Pre-infuse): 0.08 ± 0.02 % of filtered
- UNaV (sodium excretion) ([1]; huUgnA 12 nmol, Pre-infuse): 85 ± 20 nEq/min/g KW
- FENa (fractional sodium excretion) ([1]; huUgnA 25 nmol, Infuse, * p<0.05 vs time control): 0.27 ± 0.08* % of filtered
- UNaV (sodium excretion) ([1]; huUgnA 25 nmol, Infusion, * p<0.05 vs time control): 291.7 ± 77* nEq/min/g KW
- FENa (fractional sodium excretion) [1, 3]: 0.68 ± 0.08*** % of filtered
- UNaV (sodium excretion) [1, 3]: 664 ± 75*** nEq/min/g KW
- FENa (fractional sodium excretion) ([1]; huUgnA 25 nmol, Pre-infuse): 0.09 ± 0.01 % of filtered
- UNaV (sodium excretion) ([1]; huUgnA 25 nmol, Pre-infuse): 93 ± 7 nEq/min/g KW
- FENa (fractional sodium excretion) ([1]; huUgnA 50 nmol, Infuse): 0.10 ± 0.01 % of filtered
- UNaV (sodium excretion) ([1]; huUgnA 50 nmol, Infusion): 117.5 ± 22 nEq/min/g KW
- FENa (fractional sodium excretion) ([1]; huUgnA 50 nmol, Post-infuse): 0.28 ± 0.05 % of filtered
- UNaV (sodium excretion) ([1]; huUgnA 50 nmol, Post-infuse, * p<0.05 vs time control): 342 ± 63* nEq/min/g KW
- FENa (fractional sodium excretion) ([1]; huUgnA 50 nmol, Pre-infuse): 0.06 ± 0.01 % of filtered
- UNaV (sodium excretion) ([1]; huUgnA 50 nmol, Pre-infuse): 73 ± 10 nEq/min/g KW
- FENa (fractional sodium excretion) ([1]; huUgnA 100 nmol, Infuse): 0.12 ± 0.03 % of filtered
- UNaV (sodium excretion) ([1]; huUgnA 100 nmol, Infusion): 130.8 ± 32 nEq/min/g KW
- FENa (fractional sodium excretion) ([1]; huUgnA 100 nmol, Post-infuse): 0.27 ± 0.06 % of filtered
- UNaV (sodium excretion) ([1]; huUgnA 100 nmol, Post-infuse): 328 ± 80 nEq/min/g KW
- FENa (fractional sodium excretion) ([1]; huUgnA 100 nmol, Pre-infuse): 0.06 ± 0.01 % of filtered
- UNaV (sodium excretion) ([1]; huUgnA 100 nmol, Pre-infuse): 66 ± 9 nEq/min/g KW
- FENa (fractional sodium excretion) ([1]; huUgnA 200 nmol, Infuse): 0.11 ± 0.02 % of filtered
- UNaV (sodium excretion) ([1]; huUgnA 200 nmol, Infusion): 120.6 ± 18 nEq/min/g KW
- FENa (fractional sodium excretion) ([1]; huUgnA 200 nmol, Post-infuse): 0.29 ± 0.03 % of filtered
- UNaV (sodium excretion) ([1]; huUgnA 200 nmol, Post-infuse): 342 ± 51 nEq/min/g KW
- FENa (fractional sodium excretion) ([1]; huUgnA 200 nmol, Pre-infuse): 0.06 ± 0.01 % of filtered
- UNaV (sodium excretion) ([1]; huUgnA 200 nmol, Pre-infuse): 67 ± 1 nEq/min/g KW
- UNaV time course, ANOVA vs control ([1]; infusion period (p<0.05) and post infusion period (p<0.001)): significant increase
- shape of natriuretic dose-response relationship ([1]; rat, in vivo): bell-shaped
- GFR (glomerular filtration rate) ([2]; huUgnA 12 nmol, Infusion): 869 ± 64 μl/min/g KW
- GFR (glomerular filtration rate) ([2]; huUgnA 12 nmol, Post-infuse): 923 ± 66 μl/min/g KW
- GFR (glomerular filtration rate) ([2]; huUgnA 12 nmol, Pre-infuse): 895 ± 51 μl/min/g KW
- GFR (glomerular filtration rate) ([2]; huUgnA 25 nmol, Infusion): 886 ± 66 μl/min/g KW
- GFR (glomerular filtration rate) ([2]; huUgnA 25 nmol, Post-infuse): 823 ± 49 μl/min/g KW
- GFR (glomerular filtration rate) ([2]; huUgnA 25 nmol, Pre-infuse): 820 ± 40 μl/min/g KW
- GFR (glomerular filtration rate) ([2]; huUgnA 50 nmol, Infusion): 817 ± 53 μl/min/g KW
- GFR (glomerular filtration rate) ([2]; huUgnA 50 nmol, Post-infuse): 869 ± 49 μl/min/g KW
- GFR (glomerular filtration rate) ([2]; huUgnA 50 nmol, Pre-infuse): 858 ± 52 μl/min/g KW
- GFR (glomerular filtration rate) ([2]; huUgnA 100 nmol, Infusion): 858 ± 55 μl/min/g KW
- GFR (glomerular filtration rate) ([2]; huUgnA 100 nmol, Post-infuse): 906 ± 38 μl/min/g KW
- GFR (glomerular filtration rate) ([2]; huUgnA 100 nmol, Pre-infuse): 807 ± 62 μl/min/g KW
- GFR (glomerular filtration rate) ([2]; huUgnA 200 nmol, Infusion): 827 ± 61 μl/min/g KW
- GFR (glomerular filtration rate) ([2]; huUgnA 200 nmol, Post-infuse): 849 ± 24 μl/min/g KW
- GFR (glomerular filtration rate) ([2]; huUgnA 200 nmol, Pre-infuse): 857 ± 43 μl/min/g KW

Reference: patent US20120028897A1, “METHODS AND COMPOSITIONS FOR THE TREATMENT OF FLUID RETENTION DISORDERS” (priority 2008, published 2012)
